Holding throughout (format): cell-based
The target of test [1] is T1, hGIPR (Homo sapiens, UniProt P48546).
T1 construct: expressed in transfected cells
T1 sequence (P48546 22-466): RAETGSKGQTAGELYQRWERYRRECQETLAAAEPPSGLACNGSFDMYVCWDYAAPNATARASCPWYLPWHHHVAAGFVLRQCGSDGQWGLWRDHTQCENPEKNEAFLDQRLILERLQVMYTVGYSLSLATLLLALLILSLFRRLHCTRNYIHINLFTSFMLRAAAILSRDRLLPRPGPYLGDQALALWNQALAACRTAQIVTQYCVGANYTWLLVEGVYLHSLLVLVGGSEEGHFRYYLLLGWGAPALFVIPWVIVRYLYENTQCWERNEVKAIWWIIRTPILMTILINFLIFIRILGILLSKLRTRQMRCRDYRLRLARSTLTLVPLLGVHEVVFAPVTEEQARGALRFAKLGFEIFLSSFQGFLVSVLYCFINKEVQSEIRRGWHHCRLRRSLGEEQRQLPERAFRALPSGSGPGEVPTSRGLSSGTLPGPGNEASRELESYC
The test can be described thus: Functional cAMP formation (HTRF) in HEK-293 clonal cells expressing hGIPR, 0.1% bovine casein, without or with 1.0% human serum albumin. The settings on record: for EC50: geometric mean. Summed up:
(§1)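 Cells were stimulated with peptide for 30 min at 37° C, then intracellular cAMP was measured by competitive HTRF (665/620 nm ratio) and converted to nM using a cAMP standard curve. Relative EC50 and Emax came from four-parameter logistic fits of percent maximal response against peptide concentration.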

Test [2] concerns the target hGLP-1R (Homo sapiens, UniProt P43220). The test can be described thus: Functional cAMP formation (HTRF) in HEK-293 clonal cells expressing hGLP-1R, 0.1% bovine casein, without or with 1.0% human serum albumin. Further details: expressed in transfected cells. Particulars: for EC50: geometric mean. In short, it runs like this: as §1
In test [3] the target is T2, hGCGR (Homo sapiens, UniProt P47871).
T2 construct: expressed in transfected cells
T2 sequence (P47871 26-477): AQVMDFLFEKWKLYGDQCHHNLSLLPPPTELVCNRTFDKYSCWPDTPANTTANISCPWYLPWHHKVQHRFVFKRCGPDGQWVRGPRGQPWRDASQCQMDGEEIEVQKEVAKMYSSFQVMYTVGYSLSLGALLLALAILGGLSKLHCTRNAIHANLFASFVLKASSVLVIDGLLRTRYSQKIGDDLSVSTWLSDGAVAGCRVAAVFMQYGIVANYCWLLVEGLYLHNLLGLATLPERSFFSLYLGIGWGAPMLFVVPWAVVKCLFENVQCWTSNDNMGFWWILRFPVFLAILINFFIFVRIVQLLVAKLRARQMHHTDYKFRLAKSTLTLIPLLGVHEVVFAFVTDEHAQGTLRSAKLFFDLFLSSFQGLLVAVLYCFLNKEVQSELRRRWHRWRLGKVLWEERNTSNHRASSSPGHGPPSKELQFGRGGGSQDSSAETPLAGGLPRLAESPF
Description: Functional cAMP formation (HTRF) in HEK-293 clonal cells expressing hGCGR, 0.1% bovine casein, without or with 1.0% human serum albumin. The settings on record: geometric mean. Summed up:
as §1
(Changes in cAMP serve as a functional read-out for many G protein-coupled receptors.)

Where [4] appears, read: 0.1% bovine casein and 1.0% human serum albumin, 37° C., read-out: hGIPR EC50, nM (SEM, n).
Where [5] appears, read: HEK293, 0.1% bovine casein and 1.0% human serum albumin, 37° C., percent of maximal response to GIP(1-42)NH2, read-out: hGIPR Emax, % ± SEM.
Setting [6] is: 0.1% bovine casein and 1.0% human serum albumin, 37° C., read-out: hGLP-1R EC50, nM (SEM, n).
Setting [7] is: 0.1% bovine casein and 1.0% human serum albumin, 37° C., read-out: hGCGR EC50, nM (SEM, n).
[8] abbreviates: cAMP, incubated at 37° C., 0.1% bovine casein (no human serum albumin), read-out: hGCGR EC50, nM (SEM, n).
Setting [9] is: HEK293, read-out: hGIPR Emax, % ± SEM, percent of maximal response to GIP(1-42)NH2, 37° C., 0.1% bovine casein, arithmetic mean.
Setting [10] is: hGCGR EC50, nM (SEM, n), cAMP, incubated at 37° C., 0.1% bovine casein (no human serum albumin).
Setting [11] is: HEK293, read-out: hGIPR Emax, % ± SEM, 0.1% bovine casein and 1.0% human serum albumin, 37° C., percent of maximal response to GIP(1-42)NH2.
Setting [12] is: hGIPR EC50, nM (SEM, n), 0.1% bovine casein and 1.0% human serum albumin, 37° C.
Setting [13] is: HEK293, read-out: hGLP-1R Emax, % ± SEM, 0.1% bovine casein and 1.0% human serum albumin, 37° C., percent of maximal response to GLP-1(7-36)NH2.
Setting [14] is: hGCGR EC50, nM (SEM, n), 0.1% bovine casein and 1.0% human serum albumin, 37° C.

Read-outs that look alike come from different tables or passages of the source.

hGLP-1R, sequence (P43220 24-463): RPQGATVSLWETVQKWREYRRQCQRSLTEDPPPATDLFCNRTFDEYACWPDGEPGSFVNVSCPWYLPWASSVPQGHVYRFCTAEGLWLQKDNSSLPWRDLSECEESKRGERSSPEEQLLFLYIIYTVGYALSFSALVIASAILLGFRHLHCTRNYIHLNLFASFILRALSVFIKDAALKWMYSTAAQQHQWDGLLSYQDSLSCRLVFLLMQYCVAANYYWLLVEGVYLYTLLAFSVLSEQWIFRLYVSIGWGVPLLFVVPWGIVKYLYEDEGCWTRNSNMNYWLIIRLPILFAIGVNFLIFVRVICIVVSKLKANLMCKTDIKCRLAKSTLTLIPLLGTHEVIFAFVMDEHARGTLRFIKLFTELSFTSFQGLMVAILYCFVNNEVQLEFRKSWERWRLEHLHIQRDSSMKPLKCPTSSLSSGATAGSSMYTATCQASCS

For the compound `CC[C@H](C)[C@H](NC(=O)[C@H](CC(C)C)NC(=O)[C@](C)(Cc1ccc(O)cc1)NC(=O)[C@@H](CCC(=O)O)NC(=O)[C@@H](NC(=O)[C@H](Cc1ccccc1)NC(=O)[C@H](CCC(=O)O)NC(=O)C(C)(C)NC(=O)[C@H](CCC(N)=O)NC(=O)[C@H](C)NC(=O)[C@H](CCCCNC(=O)COCCOCCNC(=O)COCCOCCNC(=O)CCCCCCCCCCCCC(=O)O)NC(=O)[C@H](CCCN)NC(=O)[C@H](CC(=O)O)NC(=O)[C@H](CC(C)C)NC(=O)[C@](C)(CC(C)C)NC(=O)[C@@H](NC(=O)[C@H](CO)NC(=O)[C@H](Cc1ccncc1)NC(=O)[C@H](CC(=O)O)NC(=O)[C@H](CO)NC(=O)[C@@H](NC(=O)[C@](C)(Cc1ccccc1F)NC(=O)[C@@H](NC(=O)CNC(=O)[C@H](CCC(=O)O)NC(=O)C(C)(C)NC(=O)[C@@H](N)Cc1ccc(O)cc1)[C@@H](C)O)[C@@H](C)O)[C@@H](C)CC)[C@@H](C)CC)C(=O)N[C@@H](CCCCNC(=O)COCCOCCNC(=O)COCCOCCNC(=O)CCCCCCCCCCCCC(=O)O)C(=O)NCC(=O)NCC(=O)N1CCC[C@H]1C(=O)N[C@@H](CO)C(=O)N[C@@H](CO)C(=O)NCC(=O)N[C@@H](C)C(=O)N1CCC[C@H]1C(=O)N1CCC[C@H]1C(=O)N1CCC[C@H]1C(=O)N[C@@H](CO)C(N)=O` [Example 210], the EC50 in test [1] (setting [4]) was 0.44 nM; in test [2] (setting [6]), 8.86 nM; in test [3] (setting [7]), over 9950 nM; in test [3] (setting [8]), over 9950 nM. Also, the Emax in test [1] (setting [5]) was 68.1%; in test [1] (HEK293, percent of maximal response to GIP(1-42)NH2, 37° C., 0.1% bovine casein, arithmetic mean, read-out: hGIPR Emax, % ± SEM), 92.1%.
Regarding `CC[C@H](C)[C@H](NC(=O)[C@H](CC(C)C)NC(=O)[C@](C)(Cc1ccc(O)cc1)NC(=O)[C@H](CCCCNC(=O)[C@@H](N)CCCCNC(=O)[C@@H](N)CCCCNC(=O)CC[C@H](NC(=O)CCCCCCCCCCCCC(=O)O)C(=O)O)NC(=O)[C@@H](NC(=O)[C@H](Cc1ccccc1)NC(=O)[C@H](CCC(=O)O)NC(=O)C(C)(C)NC(=O)[C@H](CCC(N)=O)NC(=O)[C@H](C)NC(=O)[C@H](CCCCNC(=O)[C@@H](N)CCCCNC(=O)[C@@H](N)CCCCNC(=O)CC[C@H](NC(=O)CCCCCCCCCCCCC(=O)O)C(=O)O)NC(=O)[C@H](CCCN)NC(=O)[C@H](CC(=O)O)NC(=O)[C@H](CC(C)C)NC(=O)[C@](C)(CC(C)C)NC(=O)[C@@H](NC(=O)C(C)(C)NC(=O)[C@@H](NC(=O)[C@H](CC(=O)O)NC(=O)[C@H](CO)NC(=O)[C@@H](NC(=O)[C@](C)(Cc1ccccc1F)NC(=O)[C@@H](NC(=O)CNC(=O)[C@H](CCC(=O)O)NC(=O)C(C)(C)NC(=O)[C@@H](N)Cc1ccc(O)cc1)[C@@H](C)O)[C@@H](C)O)C(C)C)[C@@H](C)CC)[C@@H](C)CC)C(=O)N[C@@H](CCC(=O)O)C(=O)NCC(=O)NCC(=O)N1CCC[C@H]1C(=O)N[C@@H](CO)C(=O)N[C@@H](CO)C(=O)NCC(=O)N[C@@H](C)C(=O)N1CCC[C@H]1C(=O)N1CCC[C@H]1C(=O)N1CCC[C@H]1C(=O)N[C@@H](CO)C(N)=O` [Example 168], the Emax in test [1] (setting [9]) stood at 93%; in test [2] (HEK293, read-out: hGLP-1R Emax, % ± SEM, percent of maximal response to GLP-1(7-36)NH2, 37° C., 0.1% bovine casein, arithmetic mean), 93.3%. In test [3] (setting [10]), this compound had an EC50 of over 9950 nM.
For `CC[C@H](C)[C@H](NC(=O)[C@H](CCCN)NC(=O)[C@H](CC(=O)O)NC(=O)[C@H](CC(C)C)NC(=O)[C@](C)(CC(C)C)NC(=O)[C@@H](NC(=O)[C@H](CO)NC(=O)[C@H](Cc1ccncc1)NC(=O)[C@H](CC(=O)O)NC(=O)[C@H](CO)NC(=O)[C@@H](NC(=O)[C@](C)(Cc1ccccc1F)NC(=O)[C@@H](NC(=O)CNC(=O)[C@H](CCC(=O)O)NC(=O)C(C)(C)NC(=O)[C@@H](N)Cc1ccc(O)cc1)[C@@H](C)O)[C@@H](C)O)[C@@H](C)CC)C(=O)N[C@@H](C)C(=O)N[C@@H](CCC(N)=O)C(=O)NC(C)(C)C(=O)N[C@@H](CCC(=O)O)C(=O)N[C@@H](Cc1ccccc1)C(=O)N[C@H](C(=O)N[C@@H](CCCCNC(=O)COCCOCCNC(=O)COCCOCCNC(=O)CCCCCCCCCCCCC(=O)O)C(=O)N[C@@](C)(Cc1ccc(O)cc1)C(=O)N[C@@H](CC(C)C)C(=O)N[C@H](C(=O)N[C@@H](CCC(=O)O)C(=O)NCC(=O)NCC(=O)N1CCC[C@H]1C(=O)N[C@@H](CO)C(=O)N[C@@H](CO)C(=O)NCC(=O)N[C@@H](C)C(=O)N1CCC[C@H]1C(=O)N1CCC[C@H]1C(=O)N1CCC[C@H]1C(=O)N[C@@H](CO)C(=O)N[C@@H](CCCCNC(=O)COCCOCCNC(=O)COCCOCCNC(=O)CCCCCCCCCCCCC(=O)O)C(N)=O)[C@@H](C)CC)[C@@H](C)CC` [Example 194], the Emax in test [1] (setting [11]) turned out to be 80.7 ± 7.81%; in test [1] (setting [9]) it was 93.1 ± 1.05%; in test [2] (setting [13]) it was 109 ± 10.5%. The EC50 was 1.24 nM in test [1] (setting [12]), over 9950 nM in test [3] (setting [14]) and over 9950 nM in test [3] (setting [10]).
On to `CC[C@H](C)[C@H](NC(=O)[C@H](CC(C)C)NC(=O)[C@](C)(Cc1ccc(O)cc1)NC(=O)[C@@H](CCC(=O)O)NC(=O)[C@@H](NC(=O)[C@H](Cc1ccccc1)NC(=O)[C@H](CCCCNC(=O)COCCOCCNC(=O)CC[C@H](NC(=O)CCCCCCCCCCCCC(=O)O)C(=O)O)NC(=O)C(C)(C)NC(=O)[C@H](CCC(N)=O)NC(=O)[C@H](C)NC(=O)[C@H](CCCCNC(=O)COCCOCCNC(=O)CC[C@H](NC(=O)CCCCCCCCCCCCC(=O)O)C(=O)O)NC(=O)[C@H](CCCN)NC(=O)[C@H](CC(=O)O)NC(=O)[C@H](CC(C)C)NC(=O)[C@](C)(CC(C)C)NC(=O)[C@@H](NC(=O)[C@H](CO)NC(=O)[C@H](Cc1ccncc1)NC(=O)[C@H](CC(=O)O)NC(=O)[C@H](CO)NC(=O)[C@@H](NC(=O)[C@](C)(Cc1ccccc1F)NC(=O)[C@@H](NC(=O)CNC(=O)[C@H](CCC(=O)O)NC(=O)C(C)(C)NC(=O)[C@@H](N)Cc1ccc(O)cc1)[C@@H](C)O)[C@@H](C)O)[C@@H](C)CC)[C@@H](C)CC)C(=O)N[C@@H](CCC(=O)O)C(=O)NCC(=O)NCC(=O)N1CCC[C@H]1C(=O)N[C@@H](CO)C(=O)N[C@@H](CO)C(=O)NCC(=O)N[C@@H](C)C(=O)N1CCC[C@H]1C(=O)N1CCC[C@H]1C(=O)N1CCC[C@H]1C(=O)N[C@@H](CO)C(N)=O` [Example 76], for which the EC50 in test [1] (setting [4]) was 1.4 nM; in test [1] (cAMP, incubated at 37° C., 0.1% bovine casein (no human serum albumin), read-out: hGIPR EC50, nM (SEM, n)), 0.0205 nM; in test [2] (setting [6]), 28.9 nM; in test [2] (cAMP, incubated at 37° C., 0.1% bovine casein (no human serum albumin), read-out: hGLP-1R EC50, nM (SEM, n)) it was 0.527 nM; in test [3] (setting [7]), over 9950 nM; in test [3] (setting [8]), over 9950 nM. In addition, the Emax in test [1] (setting [5]) worked out at 89.9 ± 2.11%.
Take `CC[C@H](C)[C@H](NC(=O)[C@H](CCCN)NC(=O)[C@H](CC(=O)O)NC(=O)[C@H](CC(C)C)NC(=O)[C@](C)(CC(C)C)NC(=O)[C@@H](NC(=O)[C@H](CO)NC(=O)[C@H](Cc1ccncc1)NC(=O)[C@H](CC(=O)O)NC(=O)[C@H](CO)NC(=O)[C@@H](NC(=O)[C@](C)(Cc1ccccc1F)NC(=O)[C@@H](NC(=O)CNC(=O)[C@H](CCC(=O)O)NC(=O)C(C)(C)NC(=O)[C@@H](N)Cc1ccc(O)cc1)[C@@H](C)O)[C@@H](C)O)[C@@H](C)CC)C(=O)N[C@@H](C)C(=O)N[C@@H](CCC(N)=O)C(=O)NC(C)(C)C(=O)N[C@@H](CCCCNC(=O)COCCOCCNC(=O)COCCOCCNC(=O)CCCCCCCCCCCCC(=O)O)C(=O)N[C@@H](Cc1ccccc1)C(=O)N[C@H](C(=O)N[C@@H](CCCCNC(=O)COCCOCCNC(=O)COCCOCCNC(=O)CCCCCCCCCCCCC(=O)O)C(=O)N[C@@](C)(Cc1ccc(O)cc1)C(=O)N[C@@H](CC(C)C)C(=O)N[C@H](C(=O)N[C@@H](CCC(=O)O)C(=O)NCC(=O)NCC(=O)N1CCC[C@H]1C(=O)N[C@@H](CO)C(=O)N[C@@H](CO)C(=O)NCC(=O)N[C@@H](C)C(=O)N1CCC[C@H]1C(=O)N1CCC[C@H]1C(=O)N1CCC[C@H]1C(=O)N[C@@H](CO)C(N)=O)[C@@H](C)CC)[C@@H](C)CC` [Example 191]: the Emax in test [1] (setting [11]) came to 86.2 ± 5.5%; in test [1] (setting [9]), 90 ± 3.29%; in test [2] (setting [13]), 105 ± 7.98%. Also, the EC50 in test [1] (setting [12]) was 0.866 nM; in test [2] (hGLP-1R EC50, nM (SEM, n), 0.1% bovine casein and 1.0% human serum albumin, 37° C.) it was 13.1 nM; in test [3] (setting [14]), over 9950 nM; in test [3] (setting [10]) it was over 9950 nM.

As a reminder, the EC50 is the concentration at which the effect is half-maximal. Usually Emax stands for the size of the effect at its maximum, as opposed to the concentration needed.
